{"source": "patent US20050277660A1", "about": "“Novel tetrahydroquinoline derivatives” (priority 2002, published 2005)", "key": {"[1]": {"tested_on": "Orchiectomized (ORX) Rats", "experiment": "Effect on prostate, femoral bone mineral density and levator ani muscle in ORX rats, subcutaneous (Test Example 2)", "assay_type": "in vivo, rat", "details": "4 weeks; for Femoral bone mineral density / Levator ani muscle weight / Prostate weight: 5 days per week, Mean ± SD; for Femoral bone mineral density: DEXA, right femur", "description": "(§1) Effect on Prostate, Femoral Bone Mineral Density, and Levator Ani Muscle in Orchiectomized (ORX) Rats\n(§2) Testes were removed from 12-week-old male SD rats. […] The compound of the Example and the DHT were each dissolved in dimethyl sulfoxide, and then diluted 10-fold with olive oil. The resulting solution of each concentration was used in the test. In an ORX control group, dimethyl sulfoxide diluted 10-fold with olive oil was used for the test."}, "[2]": {"tested_on": "Orchiectomized (ORX) Rats", "experiment": "Effect on prostate, femoral bone mineral density and levator ani muscle in ORX rats, subcutaneous (Test Example 3)", "assay_type": "in vivo, rat", "details": "4 weeks; for Femoral bone mineral density / Levator ani muscle weight / Prostate weight: 5 days per week, Mean ± SD; for Femoral bone mineral density: DEXA, right femur", "description": "as §1\nas §2, with “compounds” for “compound”, “Examples” for “Example”"}, "[3]": {"target": "T1, Rat Androgen Receptors (Rat AR) (Rattus norvegicus, UniProt P15207)", "T1 construct": "from tissue; host or cells: prostate of orchiectomized male SD rats (100,000 x g supernatant of the homogenate)", "T1 sequence (P15207 1-902)": "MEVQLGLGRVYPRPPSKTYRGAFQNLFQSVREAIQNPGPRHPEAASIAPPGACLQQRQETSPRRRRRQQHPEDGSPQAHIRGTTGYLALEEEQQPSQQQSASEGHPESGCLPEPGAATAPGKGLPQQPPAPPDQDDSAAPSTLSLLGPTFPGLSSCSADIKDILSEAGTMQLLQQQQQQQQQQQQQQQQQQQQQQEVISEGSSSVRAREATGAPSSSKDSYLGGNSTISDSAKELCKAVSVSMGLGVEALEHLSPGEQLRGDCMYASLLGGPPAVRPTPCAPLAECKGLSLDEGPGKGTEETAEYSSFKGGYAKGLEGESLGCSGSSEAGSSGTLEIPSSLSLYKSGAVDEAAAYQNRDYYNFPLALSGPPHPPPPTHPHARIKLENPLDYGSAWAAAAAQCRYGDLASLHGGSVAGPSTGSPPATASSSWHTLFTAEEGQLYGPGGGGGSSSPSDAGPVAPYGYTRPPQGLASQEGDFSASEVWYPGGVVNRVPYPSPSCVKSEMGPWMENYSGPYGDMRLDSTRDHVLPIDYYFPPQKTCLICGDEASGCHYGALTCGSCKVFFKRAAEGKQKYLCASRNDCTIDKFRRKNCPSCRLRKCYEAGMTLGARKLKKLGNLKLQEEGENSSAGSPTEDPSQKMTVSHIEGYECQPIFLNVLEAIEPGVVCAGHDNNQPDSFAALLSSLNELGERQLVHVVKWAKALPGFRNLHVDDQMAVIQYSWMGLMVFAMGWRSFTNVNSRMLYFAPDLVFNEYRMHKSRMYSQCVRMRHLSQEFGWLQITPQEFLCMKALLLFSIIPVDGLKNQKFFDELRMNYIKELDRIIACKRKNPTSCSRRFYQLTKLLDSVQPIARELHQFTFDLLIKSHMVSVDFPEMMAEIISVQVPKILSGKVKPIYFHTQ", "experiment": "Test for competitive binding to rat androgen receptors (Test Example 1)", "details": "100×(IC50 of bicalutamide)/(IC50 of compound); bicalutamide taken as 100; 3H-testosterone, rat prostate AR fraction", "protocol": "Test for Competitive Binding to Rat Androgen Receptors (Rat AR)\nPreparation of rat AR fraction: Prostates were harvested into ice-cooled ET buffer (10 mM Tris, 1 mM EDTA, 5 mM DTT, 10 mM sodium molybdate, pH 7.4) 3 days after orchiectomy in 11-week-old male SD rats. The prostate was finely cut, and ET buffer was added, whereafter the mixture was homogenized using a homogenizer. The homogenate was ultracentrifuged (100,000×g, 60 min, 4° C.), and the supernatant was used as a rat AR fraction (hereinafter referred to as ARF).\nBinding test: ^3H-testosterone (hereinafter referred to as ^3H-T) was diluted with ET buffer. Dihydrotestosterone (DHT) was prepared so as to have a concentration (final concentration 1 μM) 400 times the maximum concentration of ^3H-T (2.5 nM). The ^3H-T solution was added to a 1.5 ml tube containing DHT, no DHT, or various concentrations of a test compound. Further, 200 μg ARF was added to adjust the final volume to 100 μl. The mixture was incubated for 2 hours at 4° C., and then 300 μl of a 0.05% dextran T70-1.0% activated carbon solution was added. The mixture was further incubated for 15 minutes in ice to remove the free ^3H-T by adsorption. […] The mixture was stirred, allowed to stand, and measured for ^3H radioactivity with a liquid scintillation counter."}, "[4]": {"tested_on": "Orchiectomized (ORX) Rats", "experiment": "Effect of oral administration on prostate, femoral bone mineral density and levator ani muscle in ORX rats (Test Example 4)", "assay_type": "in vivo, rat", "details": "30 mg/kg orally twice daily, 4 weeks", "protocol": "Effect of the Oral Administration on Prostate, Femoral Bone Mineral Density, and Levator Ani Muscle in Orchiectomized (ORX) Rats\nTestes were removed from 12-week-old male SD rats. From the following day onward, the compound of Example 16 (30 mg/5 ml/kg) was orally administered twice daily for 4 consecutive weeks on 7 days per week. The test compound was suspended in a 0.5% methylcellulose solution as a solvent, and used in the test. In an ORX control group, a 0.5% methylcellulose solution (5 ml/kg) was administered. The rats, which had not been orchiectomized, but had been subjected to laparotomy, followed by closure of the abdomen, were used as a sham control group. On the next day after final administration, the wet weights of the ventral prostate and the levator ani muscle were measured, and the bone mineral density of the right femur was measured by the DEXA method (dual energy X-ray absorptiometry), to evaluate the in vivo effect of the compound of Example 16."}}}
{"smiles": "CC(C)(CNC(=O)c1ccc(OC(F)(F)F)cc1)[C@H]1Nc2ccc(C#N)cc2[C@H]2CCC[C@H]21", "note": "(relative stereo) [Example 1, (3aR*,4S*,9bS*)-N-[2-(8-cyano-2,3,3a,4,5,9b-hexahydro-1H-cyclopenta[c]quinolin-4-yl)-2-methylpropyl]-4-trifluoromethoxybenzamide]", "values": [{"measurement": "Femoral bone mineral density", "setting": "[1]; 30 mg/kg s.c. once daily", "value": "137 ± 7", "unit": "mg/cm^2"}, {"measurement": "Levator ani muscle weight", "setting": "[1]; 30 mg/kg s.c. once daily", "value": "60 ± 6", "unit": "mg/100 g body weight"}, {"measurement": "Prostate weight", "setting": "[1]; 30 mg/kg s.c. once daily", "value": "70 ± 13", "unit": "mg/100 g body weight"}, {"measurement": "weight of the prostate relative to that in the sham control group", "setting": "[1]; 30 mg/kg s.c.", "value": "about 74%"}]}
{"smiles": "CC(C)(CNC(=O)c1ccc(OCC(F)(F)F)cc1)[C@H]1Nc2ccc(C#N)cc2[C@H]2CCC[C@H]21", "note": "(relative stereo) [Example 8, (3aR*,4S*,9bS*)-N-[2-(8-Cyano-2,3,3a,4,5,9b-hexahydro-1H-cyclopenta[c]quinolin-4-yl)-2-methylpropyl]-4-(2,2,2-trifluoroethoxy)benzamide]", "values": [{"measurement": "Femoral bone mineral density", "setting": "[2]; 30 mg/kg s.c. once daily", "value": "136 ± 3", "unit": "mg/cm^2"}, {"measurement": "Levator ani muscle weight", "setting": "[2]; 30 mg/kg s.c. once daily", "value": "58 ± 6", "unit": "mg/100 g body weight"}, {"measurement": "Prostate weight", "setting": "[2]; 30 mg/kg s.c. once daily", "value": "62 ± 10", "unit": "mg/100 g body weight"}, {"measurement": "weight of the prostate relative to that in the sham control group", "setting": "[2]; 30 mg/kg s.c.", "value": "about 50%"}]}
{"smiles": "CC(C)(CNC(=O)c1ccc(NC=O)cc1)[C@H]1Nc2ccc(C#N)cc2[C@H]2CCC[C@H]21", "note": "(relative stereo) [Example 16, (3aR*,4S*,9bS*)-N-[2-(8-Cyano-2,3,3a,4,5,9b-hexahydro-1H-cyclopenta[c]quinolin-4-yl)-2-methylpropyl]-4-formylaminobenzamide]", "values": [{"measurement": "RBA (relative binding inhibition rate, Relative Binding Affinity)", "setting": "[3]", "value": 406}, {"measurement": "weight of the prostate relative to that in the sham control group", "setting": "[4]", "value": "about 90%"}, {"measurement": "Femoral bone mineral density", "setting": "[4]; 7 days per week, DEXA, right femur, Mean ± SD", "value": "136 ± 10", "unit": "mg/cm^2"}, {"measurement": "Levator ani muscle weight", "setting": "[4]; 7 days per week, Mean ± SD", "value": "60 ± 6", "unit": "mg/100 g body weight"}, {"measurement": "Prostate weight", "setting": "[4]; 7 days per week, Mean ± SD", "value": "90 ± 24", "unit": "mg/100 g body weight"}]}
{"smiles": "CC(=O)Nc1ccc(C(=O)NCC(C)(C)[C@H]2Nc3ccc(C#N)cc3[C@H]3CCC[C@H]32)cn1", "note": "(relative stereo) [Example 23, (3aR*,4S*,9bS*)-6-Acetamido-N-[2-(8-cyano-2,3,3a,4,5,9b-hexahydro-1H-cyclopenta[c]quinolin-4-yl)-2-methylpropyl]nicotinamide]", "values": [{"measurement": "RBA (relative binding inhibition rate, Relative Binding Affinity)", "setting": "[3]", "value": 420}, {"measurement": "Femoral bone mineral density", "setting": "[2]; 30 mg/kg s.c. once daily", "value": "137 ± 5", "unit": "mg/cm^2"}, {"measurement": "Levator ani muscle weight", "setting": "[2]; 30 mg/kg s.c. once daily", "value": "72 ± 6", "unit": "mg/100 g body weight"}, {"measurement": "Prostate weight", "setting": "[2]; 30 mg/kg s.c. once daily", "value": "111 ± 14", "unit": "mg/100 g body weight"}, {"measurement": "weight of the prostate relative to that in the sham control group", "setting": "[2]; 30 mg/kg s.c.", "value": "about 90%"}]}
{"smiles": "C[C@]12CCC(=O)C[C@@H]1CC[C@@H]1[C@@H]2CC[C@]2(C)[C@@H](O)CC[C@@H]12", "note": "[DHT, dihydrotestosterone, reference compound]", "values": [{"measurement": "Femoral bone mineral density", "setting": "[1]; 10 mg/kg s.c. once daily", "value": "138 ± 6", "unit": "mg/cm^2"}, {"measurement": "Levator ani muscle weight", "setting": "[1]; 10 mg/kg s.c. once daily", "value": "74 ± 6", "unit": "mg/100 g body weight"}, {"measurement": "Prostate weight", "setting": "[1]; 10 mg/kg s.c. once daily", "value": "166 ± 33", "unit": "mg/100 g body weight"}, {"measurement": "weight of the prostate relative to that in the sham control group", "setting": "[1]; 10 mg/kg s.c.", "value": "about 175%"}, {"measurement": "Femoral bone mineral density", "setting": "[2]; 10 mg/kg s.c. once daily", "value": "138 ± 6", "unit": "mg/cm^2"}, {"measurement": "Levator ani muscle weight", "setting": "[2]; 10 mg/kg s.c. once daily", "value": "85 ± 9", "unit": "mg/100 g body weight"}, {"measurement": "Prostate weight", "setting": "[2]; 10 mg/kg s.c. once daily", "value": "162 ± 27", "unit": "mg/100 g body weight"}, {"measurement": "weight of the prostate relative to that in the sham control group", "setting": "[2]; 10 mg/kg s.c.", "value": "about 130%"}]}
